Patent US8563254B2, “Biomarkers of tumor pharmacodynamic response” (Novartis AG, priority 2009, dated 2013)

How the values were obtained:
GTL-16 cells [1] = test: IL-8 ELISA of GTL-16 culture supernatants; format: cell-based, human
Experimental: A malignant melanoma cell line A375 (American Type Culture Collection, Manassas, Va., USA) and gastric cancer cell line, GTL-16 (Prof Silvia Giordano, Institute for Cancer Research and Treatment, Turin, Italy) were cultured in RPMI 1640 supplemented with 10% FBS and 1% penicillin-streptomycin at 37° C. in 5% CO2 (GIBCO reagents, Invitrogen Corporation, Carlsbad, Calif., USA). Cell numbers were determined by ViCell™ XR Cell Viability Analyzer 2.03 (Beckman Coulter, Inc., Fullerton, Calif., USA). Cells were seeded in poly-D-lysine coated plates (BIOCOAT Cell Environments, Becton Dickinson Biosciences, San Jose, Calif., USA).
Human IL-8 levels in cell culture supernatants from GTL-16 and A375 cells were measured by a sandwich enzyme-linked immunosorbent assay (R&D Systems, Inc., Minneapolis, Minn., USA). Cell culture supernatants were collected from DMSO and NVP-AUY922 treated cells 16, 24, 48 and 72 hr post-treatment and stored at −20° C.
To better characterize the relationship between Hsp90 inhibitor treatment and effects on IL-8 production, GTL-16 and A375 cells were washed and treated for 24 hr with fresh medium containing various concentrations of NVP-AUY922. For this length of treatment time, maximal inhibition of IL-8 accumulation appears to be reached at 0.3 μM as measured by enzyme-linked immunosorbent assay; this equates to 80% and 60% reductions in GTL-16 and A375 cultures, respectively (FIGS. 2A, B).

GTL-16 cells [2] = test: Quantitative RT-PCR of IL-8 mRNA, GTL-16; format: cell-based, human; conditions: GTL-16, 0.3 μM, 16 hr, treated versus untreated
Experimental: Total cellular RNA was extracted from the GTL-16 and A375 cell lines using RNeasy mini kit (Qiagen, Inc., Valencia, Calif., USA). Total RNA quantitation was carried out using a RiboGreen assay (Invitrogen Corporation, Carlsbad, Calif., USA). 1 μg of total RNA was reverse transcribed using AMV reverse transcriptase (Reverse Transcription Kit, Promega U.S., Madison, Wis., USA). A 20 μl reaction cocktail was prepared as follows; 1 μg total RNA in 10 μl of RNase, DNase-free H2O, 4 μl of 25 mM MgCl2, 2 μl of 10× reverse transcriptase buffer, 2 μl of 10 mM dNTP's, 1 μl of 500 μg ml^−1 random hexamers, 1.5 μl of 10 μl ml^−1, and 40 U μl^−1 0.5 μl of recombinant RNase Inhibitor. Real time PCR was performed using a 7900HT fast real-time PCR system (Applied Biosystems, Foster City, Calif., USA) using the Power SYBR Green PCR master mix (Applied Biosystems). The primers for IL-8 and GAPDH were: IL-8 sense: 5′-[…]-3′ (SEQ ID NO:3) and IL-8 antisense:
5′-[…]-3′ (SEQ ID NO:4); and GAPDH sense:
5′-[…]-3′ (SEQ ID NO:5), and GAPDH antisense;
5′-[…]-3′. (SEQ ID NO:6) The amplification process involved an initial 5 min denaturing step at 95° C. This was followed by annealing reactions for both IL-8 and GAPDH, of 45 s at 95° C. with 230 s at 68° C. for 34 cycles and 1 min at 95° C. with 1 min at 60° C. and 1 min 72° C. for 30 cycles, respectively. The final extension was 10 min at 72° C. […]

Question: Which “time within which IL-8 production dramatically declines” value (GTL-16 cells [1]; GTL-16, 0.3 μM) does the source give for `CCNC(=O)c1noc(-c2cc(C(C)C)c(O)cc2O)c1-c1ccc(CN2CCOCC2)cc1` [NVP-AUY922, 5-(2,4-Dihydroxy-5-isopropyl-phenyl)-4-(4-morhpolin-4-ylmethyl-phenyl)-isoxazole-3-carboxylic acid ethylamide] here?
Answer: ≤ 16 h

Question: And the “concentration at which maximal inhibition of IL-8 accumulation is reached” value (GTL-16 cells [1]; GTL-16, 24 hr treatment)?
Answer: 0.3 µM

Question: What about the inhibition at 0.3 µM (GTL-16 cells [1]; Homo sapiens, GTL-16, 0.3 μM, 24 hr, ELISA, read-out: reduction of IL-8 accumulation (maximal inhibition)) of the same compound?
Answer: 80%

Question: What about the “decrease in IL-8 mRNA expression” value (GTL-16 cells [2]) of the same compound?
Answer: 85%
